Read-outs that look alike come from different tables or passages of the source.
How the values were obtained:
[1] = KD of the DOTEP calcium complex by 31P NMR and pH potentiometry; type: binding; details: Ca(DOTEP); at pH 7.4
Experimental: The ^31P spectrum shown in Figure 9 was obtained on a solution containing approximately 1 mM Ca^2+ and 3 mM DOTEP in an aqueous solution at physiological pH. Clearly, the ^31P resonances of the free and bound forms of DOTEP have distinct chemical shifts and neither overlaps with the ^31P resonances of metabolites normally observed in tissue.
The value of KD at pH 7.4 reported above was determined by ^31P NMR (measuring the free and bound integrals as a function of pH in solutions containing known amounts of [Ca^2+]total and [DOTEP]total) and by pH potentiometry.

red blood cells = assay: Red blood cell loading of NOTPME derivatives; type: cell-based; details: during the time course of NMR measurements, after loading with the derivatives
Experimental: NOTPME derivatives used are the benzoyl and acetyl derivatives. Fresh whole blood was obtained in heparinized tubes and centrifuged at 3000g for 3 minutes to remove the buffy coat. Packed red blood cells are then washed three times in 5 mM phosphate buffered saline at pH 7.4. Red blood cells at 50% hematocrit were suspended in the NOTPME derivative containing loading medium. The loading medium contained 130 mM NaCl, 5 mM NOTPME derivative (benzoyl or acetyl derivative), 1 mM adenine, 10 mM glucose, and 10 mM HEPES at pH 7.4. Red cells in the above loading medium were incubated at 25°C for 1 hour. No lysis of red blood cells were observed during the loading procedure. After loading with NOTPME derivatives for one hour, the red cell suspension was centrifuged and the supernatant discarded. The red cells are washed twice with 5 mM phosphate buffered saline at pH 7.4 before suspension in an isotonic saline for NMR measurements. […] After NMR measurements the sample was centrifuged and the supernatant analyzed for any leakage of NOTPME. No leak of NOTPME was observed during the time course of NMR measurements. thus, it is clear that these NOTPME derivatives enter the red cells, get hydrolyzed to NOTPME and remain inside red cells.

RBCs = assay: Red blood cell loading of NOTPME and intracellular free Mg2+ by 31P NMR; type: cell-based, Human
Experimental: Fresh whole blood was obtained placed in heparinized tubes and centrifuged at 3000 g for 6 min. to remove the buffy coat. RBCs were then washed three times in 5 mM phosphate buffered saline at pH 7.4. RBCs at 50% hematocrit were suspended in the loading medium containing 120 mM NaCl, 5 mM MgCl2, 10 mM HEPES pH 7.4, 10 mM glucose, and 10 mM NOTPME and incubated at 37°C for 12 hours. No lysis of RBCs were observed during the loading procedure. The RBCs were centrifuged and the supernatant discarded. The RBCs were washed twice with phosphate buffered saline at pH 7.4 before suspension in an isotonic medium.
Figure 6 illustrates one application of NOTPME to detect intracellular free Mg^2+ in RBCs. NOTPME loaded RBCs (Figure 6.b) were prepared by incubating RBCs at 37°C in a loading medium containing NOTPME in the presence of 5mM MgCl2 for 12 hours. NOTPME loading into RBCs was not observed in the absence of MgCl2 in the loading medium.
As in the in vitro studies, two resonances were observed corresponding to free and Mg^2+ bound NOTPME in RBCs. […] Since intracellular free Mg^2+ levels in RBCs normally range between 0.2 - 0.3 mM [12,19,20], the high concentration of intracellular free Mg^2+ observed in this experiment must have resulted from transport of Mg^2+ as a complex with NOTPME. Upon addition of the divalent cation ionophore A23187 to the suspension medium, an increase in intracellular free Mg^2+ concentration (to 1.90 mM) was observed (data not shown).

[2] = Solubility as observed on the isolated product; type: physicochemical
Experimental: 9.20 g of NOTPDE (14.15 mmol) was mixed with 2.50 g of NaOH in 9 ml H2O) and after 2 hours the entire reaction mixture was boiled until a clear solution was obtained (approximately 5 minutes). The solution was cooled to room temperature and was allowed to stand overnight. The crystals formed were filtered off from the viscous mother liquor using a pressure filter funnel with a coarse porosity grade filter disc. The crystals were washed once with cold absolute ethanol, three times with absolute ethanol-diethylether (1:1) mixture and finally with diethyl ether. The crystals of Na3NOTPME were dried in dry nitrogen stream at 25°C for 2 hours. Traces of H2O and ethanol were removed upon vacuum drying (10 mm Hg) NOTPME for 5 hours at 50°C. […] The yield of pure NOTPME was 40.8% (3.24 g, 5.77 mmol).
NOTPME trisodium salt (178.63 mg, 0.318 mmol) was dissolved in 4.0 ml anhydrous chloroform (freshly distilled from over P4O10) and 120 microliter acetyl chloride was added. The solution was stirred at room temperature for 24 hours in a tightly closed vessel. The solution was then evaporated under dry nitrogen atmosphere to a yellowish, very viscous oil. To the oil anhydrous ether was added and NOTPME-AC (precipitated as a sodium chloride adduct) was filtered off and dried at 35-40°C under dry nitrogen. NOTPME-AC (234.24 mg, 92.3% calculated on the basis of NOTPME-AC.3NaCl formula weight) is an extremely hygroscopic, water sensitive powder.
NOTPME trisodium salt (164.82 mg, 0.294 mmol) and benzoyl chloride (105 microliter, 0.883 mmol) were reacted in 4.0 ml anhydrous chloroform at room temperature for 24 hours. The rection mixture was worked up with identical method than was used in the synthesis of NOTPME-AC. The product NOTPME-B was get as a sodium chloride adduct (204.32 mg, 70.7% calculated on the basis of NOTPME-B.3NaCl formula weight). NOTPME-B is a very hygroscopic, water sensitive powder. It is soluble in water and chloroform and DMSO.

[3] = Protonation constants by potentiometric titration; type: physicochemical; details: 0.1 m tetramethylammonium chloride
Experimental: (§1) Potentiometric titrations were conducted at 25°C using a Corning Ion Analyzer (model 250) and a Metrohm Dorsimat automatic burette (Brinkman Instruments). […] Na3NOTPME was dissolved in 0.1 M tetramethylammonium chloride, the pH adjusted to low pH value with HCl and titrated with 0.098 M KOH. KOH was standardized by potentiometric titration against potassium hydrogen phthalate and stored under N2 atmosphere. The hydrogen ion activity coefficient and Kw were determined separately in these same salt solutions. Stability constants of Zn(NOTPME)^-, Mg(NOTPME)^-, and Ca(NOTPME)^- were determined by potentiometric titration of solutions containing 1:1 ratio of metal and ligand. In all of the titrations, samples were covered by a layer of cyclohexane to exclude CO2.
(§2) Protonation constants (KHiL) and stability constants (KML, and KMHL) are defined by the following equations: KHiL = [Hi L] / {[Hi-1 (L] {H)^+ ]) [formula] KML = [ML] / {[M] [L]) [formula] KMHL (= [MHL] / {[ML] [H)^+ ]} [formula] Protonation and stability constants were obtained from the potentiometric data using a simplex non-linear algorithm run on an IBM PC.
A representative potentiometric titration curve for NOTPME in 0.1 M tetramethylammonium chloride and 25°C is illustrated in Figure 2. […] The phosphorous shifts are very sensitive to protonation of the nitrogens in the polyaza ring, similar to that observed for the parent phosphonate NOTP [17]. The first two protonations (log K = 11.8, 3.65) result in ^31P shifts to low frequency which is consistent with protonation at two ring nitrogens. […] These differences in pK2 may reflect differences in the ability of the phosphonate versus the phosphonate monoester side chains to form internal hydrogen bonds with the protonated nitrogens.

[4] = KD determination by 31P NMR (integration of free and metal bound resonances); type: binding
Experimental: ^1H NMR data was obtained on JEOL FX-200 NMR spectrometer using a 10 mm probe operating at room temperature. Studies on solutions of NOTPME and its complexes were performed on a General Electric GN-500 NMR spectrometer. A 10 mm broad band probe was tuned to 202.4 MHz for ^31P detection. Shifts for NOTPME and its complexes were measured using 85% H3PO4 as an external standard. Probe temperatures were accurate to ± 0.5°C.
Samples of NOTPME used for KD determinations by NMR consisted of 115 mM KCl, 20 mM NaCl and 10 mM HEPES buffered with Tris base at pH 7.4. Varying concentrations (typically 0.5 to 10 mM) of Mg^2+, Ca^2+ or Zn^2+ were added to the sample and the resulting ^31P NMR spectrum obtained. Resonance areas were determined by integration of peaks using the GE software.
The area of resonances corresponding to free and metal bound NOTPME were obtained by integration and their concentrations estimated.

[5] = Stability constants by potentiometric titration; type: binding; details: for log KML: potentiometry at 25°C, 1:1 metal and ligand, 0.1 M tetramethylammonium chloride
Experimental: as §1, §2

[6] = 0.1 m hcl
Experimental: In this experiment, Gd(DOTEP)^- and Gd(DOTA)^- were dissolved in 0.1M HCl and their decomposition to free Gd^3+ and free ligand were followed by water relaxation measurements.

Compound `CCP(=O)(O)CN1CCN(CP(=O)(O)CC)CCN(CP(=O)(O)CC)CCN(CP(=O)(O)CC)CC1` [DOTEP] has a Kd [1] of 0.011 mM.

With `CCOP(=O)(O)CN1CCN(CP(=O)(O)OCC)CCN(CP(=O)(O)OCC)CC1` [NOTPME, 1,4,7-Triazacyclononane-N,N',N"-tris(methylenephosphonatemonoethylester)] the “leakage of NOTPME into the supernatant” value (red blood cells) was “No leak”, the “lysis of RBCs during the loading procedure” value (RBCs; 10 mM NOTPME, 5 mM MgCl2, 37°C, 12 hours, 50% hematocrit) was “No lysis” and the “loading into RBCs” value (RBCs; in the absence of MgCl2 in the loading medium) was “not observed”. The “loading into red blood cells” value (RBCs; in the presence of Mg^2+) was “readily loaded”, the solubility in chloroform [2] was “fairly soluble” and the solubility in water [2] was “readily soluble”. The pKa ([3]; 25°C, read-out: pK1 (first protonation constant, log K1)) was 11.8, the pKa ([3]; 25°C, read-out: pK2 (second protonation constant, log K2)) was 3.65 and the pKa ([3]; 25°C, read-out: pK3) was 1.4. For the same compound, the pKa ([3]; protonations of the phosphonate ester oxygens) was less than 1.4, the Kd ([4]; Ca^2+ complex, 115 mM KCl, 20 mM NaCl, 10 mM HEPES, pH 7.4, read-out: KD (at 25°X)) was 50 mM and the Kd ([4]; Ca^2+ complex, pH 7.4, read-out: KD (at 37°C)) was 47.6 mM. The Kd ([4]; Mg^2+ complex, 31P NMR, 115 mM KCl, 20 mM NaCl, 10 mM HEPES, pH 7.4, read-out: KD (at 25°X)) was 5.77 mM, the Kd ([4]; Mg^2+ complex, 31P NMR, pH 7.4, read-out: KD (at 37°C)) was 4.66 mM and the “higher affinity for Mg^2+ than for Ca^2+” value ([4]; at physiological pH values) was 10 fold. The “log KML” value ([5]; Ca^2+) was 5.1, the “log KML” value ([5]; Mg^2+) was 6.3 and the Kd ([5]; Zn^2+ complex, estimated from log KML = 15.4, the ligand pK values and the proton concentration at pH 7.4) was 0.01 nM.

In the case of `CCOP(=O)(CN1CCN(CP(=O)(OCC)OC(C)=O)CCN(CP(=O)(OCC)OC(C)=O)CC1)OC(C)=O` (centres unmarked) [NOTPME-AC, 1,4,7-triazacyclononane-N,N',N"-tris(methylenephosphonatemonoethylesteracetic acid anhydride)], the “solubility in DMSO” value [2] is reported as “readily soluble”, the solubility in chloroform [2] is reported as “readily soluble” and the solubility in water [2] is reported as “readily soluble”.

In the case of `CCOP(=O)(CN1CCN(CP(=O)(OCC)OC(=O)c2ccccc2)CCN(CP(=O)(OCC)OC(=O)c2ccccc2)CC1)OC(=O)c1ccccc1` (centres unmarked) [NOTPME-B], the “solubility in DMSO” value [2] is reported as “soluble”, the solubility in chloroform [2] is reported as “soluble” and the solubility in water [2] is reported as “soluble”.

For Gd(DOTA)^-, the half-lives for decomposition [6] was “approximately 110 hrs”.

Source: patent publication EP0558661B1, “POLYAZAMACROCYCLIC COMPOUNDS FOR COMPLEXATION OF METAL IONS” (BOARD OF REGENTS THE UNIVERSITY OF TEXAS SYSTEM, priority 1990, dated 1992)
